Measured values taken from patent US20260209242A1, “CAMPTOTHECIN DERIVATIVE, PHARMACEUTICAL COMPOSITION, AND PREPARATION METHOD AND USE THEREFOR” (priority 2022, published 2026).
Values after ≈ are worked out from the molar mass of the structure shown. Read-outs that look alike come from different tables or passages of the source.

Tests used:
[1] = Kinetic solubility test in PBS 7.4; assay type: physicochemical; settings: for solubility at 2 h: 25 °C, pH 7.4, aqueous buffer, kinetic from dmso stock
Procedure: 10 mM stock solutions of the test substances 6-2, 11-2, 17-2, Dxd, and the control drugs progesterone and diclofenac were prepared using DMSO respectively.
15 μL of 10 mM stock solution of each of the test substances was added to a corresponding position of a corresponding 96-well plate in a specified sequence. 485 μL of the PBS 7.4 was added to a corresponding vial on a sample plate. The experiment was run in duplicate. Each vial was additionally provided with a stirring rod and was plugged. Then, the sample plate was transferred in a thermostatic mixer, and oscillated at a revolving speed of 1,100 rpm at 25° C. for 2 h. 2 h later, the plug was removed, the stirring rod was attracted away with a large magnet, and then the sample was transferred from the sample plate to the filter plate. Negative pressure was generated using a vacuum pump to filter the sample. 5 μL of filtrate and 5 μL of blank DMSO were transferred to another sample plate, and then 490 μL of internal standard water (acetonitrile:water=1:1) containing the internal standard was added. Depending on peak shapes, a certain proportion of internal standard water may be used to dilute the sample diluent to obtain better peak shapes.
6 μL was transferred from the 10 mM DMSO stock solution plate to a blank plate, and was prepared into a 300 μM standard substance solution with addition of 194 μL of DMSO. 5 μL was transferred from the 300 μM standard substance solution plate to still another blank plate, and then 5 μL of blank buffer and 490 μL of the internal standard water containing the internal standard (acetonitrile:water=1:1) were added until a final concentration of the standard substance solution was 3 μM.
An injection plate was transferred on an injection tray of an autosampler to evaluate the sample by LC/MS analysis.
All calculations were performed using Microsoft Excel.
The sample filtrate was analyzed and quantified by qualitative and quantitative LC/MS of standard substance peaks at known concentrations. The calculation formula for the solubility values of the reference drugs and the test substances are as follows:
[Sample] is the compound concentration, DFSample refers to the sample dilution factor, [STD] is the standard substance concentration of the compound, AREAStd is the standard substance peak area of the compound, and AREASample is the peak area of the compound sample.

[2] = biological target: CYP2D6 (Homo sapiens, UniProt P10635); assay: Inhibition on human hepatomicrosomes CYP2D6
[3] = Pharmacokinetic test in SD rats; settings: male, Sprague-Dawley (SD), rat, in vivo, iv, 2 mg/kg
Procedure: After a single intravenous injection (dose: 2 mpk) of the compounds 6-2, 11-2, 17-2, and Dxd into male SD rats (blood collection time points: 0.083 h, 0.25 h, 0.5 h, 1 h, 2 h, 4 h, 8 h, and 24 h after IV administration, totaling 8 blood collection time points), average pharmacokinetic parameters in the plasma are as shown in Table 5: […]

[4] = Stability of compounds in human plasma; assay type: in vitro ADME; settings: for Residual percentage (%) 1 h / Residual percentage (%) 2 h / Residual percentage (%) 6 h / Residual percentage (%) 24 h: 5 μmol/L
Procedure: • (1) 199 μL of human plasma was added to the culture plate of each cell. The culture plate was preheated to 37° C., and kept at this temperature for 15 min. • (2) After preincubation, 1 μL of 1 mmol/L each test compound and 1 μL of 1 mmol/L control compound were added to 199 μL of plasma, so that a final concentration of each test compound was 5 μmol/L and that of the control compound was 5 gmol/L. The final concentration of the organic solvent was 0.5%. The experiment would be duplicated twice. • (3) Reaction samples were incubated at 37° C. • (4) The reaction was stopped by adding 600 μL of cold methanol containing the internal standard at 0, 1, 2, 6, and 24 h. Each sample was vortex mixed for 10 min, and then centrifuged at 3,220 g for 30 min to precipitate the protein. […] Based on the signal response and peak shapes of liquid chromatography-mass spectrometry (LC-MS), the supernatant would be diluted with ultrapure water.
All calculations were performed using Microsoft Excel. The peak area ratio was determined from the chromatogram of extracted ions. The percentage of compounds remaining at each time point was calculated as per the following formula: […]

[5] = biological target: T1, CYP3A4 (Homo sapiens, UniProt P08684); assay: Inhibition on human hepatomicrosomes CYP3A4; assay type: in vitro ADME
T1 construct: from tissue; host or cells: human liver microsomes

[6] = biological target: T2, CYP1A2 (Homo sapiens, UniProt P05177); assay: Inhibition on human hepatomicrosomes CYP1A2
T2 sequence (P05177 1-516): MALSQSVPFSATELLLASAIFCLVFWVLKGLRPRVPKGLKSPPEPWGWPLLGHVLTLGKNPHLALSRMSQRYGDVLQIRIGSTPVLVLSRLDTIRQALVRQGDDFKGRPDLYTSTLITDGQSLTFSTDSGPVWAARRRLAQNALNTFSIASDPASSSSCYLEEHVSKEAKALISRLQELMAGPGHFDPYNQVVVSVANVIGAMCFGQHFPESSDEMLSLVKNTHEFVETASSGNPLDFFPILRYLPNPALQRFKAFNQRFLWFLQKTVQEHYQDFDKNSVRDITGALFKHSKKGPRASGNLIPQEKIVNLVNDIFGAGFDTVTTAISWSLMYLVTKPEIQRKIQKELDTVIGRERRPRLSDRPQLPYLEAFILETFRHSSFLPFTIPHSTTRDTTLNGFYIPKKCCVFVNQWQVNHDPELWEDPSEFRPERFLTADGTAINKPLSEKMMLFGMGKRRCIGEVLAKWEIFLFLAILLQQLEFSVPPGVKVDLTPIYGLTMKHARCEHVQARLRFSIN

[7] = Stability of compounds in human plasma; assay type: in vitro ADME; settings: 5 μmol/L
[8] = read-out: 3A4M (IC50 μM), human hepatomicrosomes, substrate midazolam

T1 sequence (P08684 whole entry): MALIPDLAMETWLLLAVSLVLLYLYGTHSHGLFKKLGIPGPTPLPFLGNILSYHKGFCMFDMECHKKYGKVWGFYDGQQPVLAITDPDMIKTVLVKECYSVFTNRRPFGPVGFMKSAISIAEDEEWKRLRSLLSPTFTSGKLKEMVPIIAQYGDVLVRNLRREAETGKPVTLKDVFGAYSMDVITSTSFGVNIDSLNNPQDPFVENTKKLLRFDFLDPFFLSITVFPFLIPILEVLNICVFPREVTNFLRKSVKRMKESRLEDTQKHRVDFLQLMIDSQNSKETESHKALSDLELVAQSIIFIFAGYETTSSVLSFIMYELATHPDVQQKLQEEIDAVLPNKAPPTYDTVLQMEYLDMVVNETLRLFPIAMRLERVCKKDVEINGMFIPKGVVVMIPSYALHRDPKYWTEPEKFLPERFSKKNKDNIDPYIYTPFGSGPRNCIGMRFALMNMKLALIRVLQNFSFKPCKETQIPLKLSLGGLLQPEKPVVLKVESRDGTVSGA
Sequence of CYP2D6 (P10635 whole entry): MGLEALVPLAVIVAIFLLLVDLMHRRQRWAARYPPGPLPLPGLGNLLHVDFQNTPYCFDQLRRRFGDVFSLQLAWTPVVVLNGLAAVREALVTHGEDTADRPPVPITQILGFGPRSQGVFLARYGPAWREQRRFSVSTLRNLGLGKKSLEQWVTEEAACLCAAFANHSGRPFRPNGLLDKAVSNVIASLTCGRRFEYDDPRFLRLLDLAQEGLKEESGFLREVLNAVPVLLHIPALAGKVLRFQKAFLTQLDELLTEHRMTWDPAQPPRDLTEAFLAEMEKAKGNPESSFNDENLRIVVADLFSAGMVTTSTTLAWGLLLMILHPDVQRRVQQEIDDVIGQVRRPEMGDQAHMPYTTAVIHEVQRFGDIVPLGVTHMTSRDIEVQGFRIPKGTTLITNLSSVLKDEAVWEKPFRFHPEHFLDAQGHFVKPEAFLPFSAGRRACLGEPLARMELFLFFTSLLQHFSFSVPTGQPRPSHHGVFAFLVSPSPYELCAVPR

CC[C@@]1(O)C(=O)OCc2c1cc1n(c2=O)Cc2c-1nc1cc(F)c(C)c3c1c2C(NC(=O)C[C@@H](C)O)CCC3 (single isomer, unassigned) [Compound 6-2]
solubility in the PBS 7.4 compared with Dxd (in words) [1]: significantly better solubility in the PBS 7.4 than Dxd | solubility at 2 h [1]: 170 µM (≈ 91 µg/mL) | IC50 [2]: > 30 µM | AUC(0-inf) [3]: 318 ng·h/mL | AUC(0-t) [3]: 314 ng·h/mL | C0 [3]: 677 ng/mL | Vd [3]: 2.93 L/kg | clearance [3]: 108 mL/min/kg | half-life [3]: 0.39 h | Residual percentage (%) 1 h [4]: 96.62% | Residual percentage (%) 2 h [4]: 86.16% | Residual percentage (%) 6 h [4]: 88.99% | Residual percentage (%) 24 h [4]: 87.01% | stability in human plasma (in words) [4]: good stability in human plasma | IC50 [5]: > 30 µM | IC50 [5, 8]: > 30 µM | IC50 [6]: > 30 µM | Residual percentage (%) 4 h [7]: 93.65%

CC[C@@]1(O)C(=O)OCc2c1cc1n(c2=O)Cc2c-1nc1cc(F)c(C3CC3)c3c1c2C(NC(=O)C[C@@H](C)O)CC3 (single isomer, unassigned) [Compound 17-2]
solubility at 2 h [1]: 1.7 µM (≈ 0.931 µg/mL) | IC50 [2]: > 30 µM | AUC(0-inf) [3]: 2730 ng·h/mL | AUC(0-t) [3]: 2250 ng·h/mL | C0 [3]: 2690 ng/mL | Vd [3]: 1.4 L/kg | clearance [3]: 12.3 mL/min/kg | half-life [3]: 1.64 h | Residual percentage (%) 1 h [4]: 90.07% | Residual percentage (%) 2 h [4]: 89.34% | Residual percentage (%) 6 h [4]: 97.06% | Residual percentage (%) 24 h [4]: 102.21% | stability in human plasma (in words) [4]: good stability in human plasma | IC50 [5]: > 30 µM | IC50 [5, 8]: > 30 µM | IC50 [6]: > 30 µM | Residual percentage (%) 4 h [7]: 93.75%
